The results in this text go back to patent US9422244B2, “Synthesis of substituted pyrazoline carboxamidine derivatives” (Abbvie Bahamas Ltd., priority 2010, dated 2016).

Consider `O=C(Nc1ccccc1Br)C(F)(F)F` [compound 12, N-(2-Bromo-phenyl)-2,2,2-trifluoro-acetamide], for which the melting point (in general, the temperature of the solid-liquid transition) was in the range of 58 to 59 °C.

`NS(=O)(=O)c1ccc(Cl)s1` [compound 30, 5-Chloro-thiophene-2-sulfonic acid amide] came in with a melting point of 109 to 110 °C. The molecule `CCN/C(=N\S(=O)(=O)c1ccccc1Cl)N1CCC(CC)=N1` registered a melting point of 87 to 88 °C.

The molecule `CC1(C)C=NN(C(N)=S)C1` [compound 31, 4,4-Dimethyl-4,5-dihydro-pyrazole-1-carbothioic acid amide] came in with a melting point of 149 to 150 °C. The figure for `NS(=O)(=O)c1c(Cl)nc2sccn12` [compound 21, 6-Chloro-imidazo[2,1-b]thiazole-5-sulfonic acid amide] is 184 to 185 °C; for `CCNC(=S)N1CC(C)(C)C=N1` [compound 5, 4,4-Dimethyl-4,5-dihydro-pyrazole-1-carbothioic acid ethylamide] it is 66 to 67 °C; for `CCN/C(=N\S(=O)(=O)/C=C/c1ccccc1)N1CC(CC)C=N1` (stereo not drawn) [compound 29, Trans-2-phenyl-ethenesulfonic acid ethylamino-(4-ethyl-4,5-dihydro-pyrazol-1-yl)-methylene-amide] it is 91 to 92 °C. The figure for `O=C(Nc1ccc(S(=O)(=O)Cl)cc1Br)C(F)(F)F` [compound 13, 3-Bromo-4-(2,2,2-trifluoro-acetylamino)-benzenesulfonyl chloride] is 60 to 61 °C; for `NS(=O)(=O)c1ccc(NC(=O)C(F)(F)F)c(Br)c1` [compound 14, N-(2-Bromo-4-sulfamoyl-phenyl)-2,2,2-trifluoro-acetamide] it is 171 to 172 °C; for `CCN/C(=N\S(=O)(=O)c1ccc(N)cc1)N1CC2(C=N1)CCCC2` [compound 4, 4-Amino-N-[(2,3-diaza-spiro[4.4]non-3-en-2-yl)-ethylamino-methylene]-benzenesulfonamide] it is 141 to 142 °C.

As to `CC1(C)C=NN(/C(N)=N/S(=O)(=O)c2ccc(Cl)s2)C1` [compound 33, 5-Chloro-thiophene-2-sulfonic acid amino-(4,4-dimethyl-4,5-dihydro-pyrazol-1-yl)-methylene-amide], the melting point lay in the range of 164 to 165 °C. The figure for `CCNC(=S)N1CC2(C=N1)CCCC2` [compound 1, 2,3-Diazaspiro[4.4]non-3-ene-2-carbothioic acid ethylamide] is 120 to 121 °C.
